Laboratory results published in paper PMC3023919 (Chemistry & biology, 2010).

How the values were obtained:
hCB2 C6.47(257)S mutant = conditions: competitive binding with [^3H]-WIN55212-2; ref Pei et al., 2008; cited from earlier work
hCB2 = conditions: read-out: hCB2 Ki; ref Rinaldi-Carmona et al., 1998; cited from earlier work
hCB2 C175S = hCB2 C175S (Homo sapiens, UniProt P34972, C175S); assay: Saturation-binding assay with [^3H]-CP55940; conditions: HEK293 membranes; mean (95% CI)
hCB2 C7.42(288)A = hCB2 C7.42(288)A (Homo sapiens, UniProt P34972, C288A); assay: Saturation-binding assay with [^3H]-CP55940; conditions: HEK293 membranes; mean (95% CI)
Chain of hCB2 C7.42(288)A (P34972 whole entry C288A): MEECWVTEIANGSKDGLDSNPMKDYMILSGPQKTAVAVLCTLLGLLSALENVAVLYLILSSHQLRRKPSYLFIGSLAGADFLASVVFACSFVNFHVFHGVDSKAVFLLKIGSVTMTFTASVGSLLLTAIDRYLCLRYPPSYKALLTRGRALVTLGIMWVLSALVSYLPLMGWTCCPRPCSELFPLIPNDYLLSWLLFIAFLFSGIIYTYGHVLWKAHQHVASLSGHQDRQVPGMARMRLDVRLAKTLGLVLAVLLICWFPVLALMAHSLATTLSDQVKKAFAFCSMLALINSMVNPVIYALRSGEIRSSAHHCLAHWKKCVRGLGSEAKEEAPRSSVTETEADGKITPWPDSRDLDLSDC

[1] = molecular target: hCB2 C7.38(284)7.42(288)S (Homo sapiens, UniProt P34972, C284S/C288S); assay: Saturation-binding assay with [^3H]-CP55940; conditions: HEK293 membranes; mean (95% CI)
Chain of hCB2 C7.38(284)7.42(288)S (P34972 whole entry C284S/C288S): as the sequence (P34972 whole entry C288A) above, with C284S, A288S counted along it

hCB2 C7.38(284)A = hCB2 C7.38(284)A (Homo sapiens, UniProt P34972, C284A); assay: Saturation-binding assay with [^3H]-CP55940; conditions: HEK293 membranes; mean (95% CI)
Chain of hCB2 C7.38(284)A (P34972 whole entry C284A): as the sequence (P34972 whole entry C288A) above, with C284A, A288C counted along it

[2] = molecular target: hCB2 C7.38(284)7.42(288)A (Homo sapiens, UniProt P34972, C284A/C288A); assay: Saturation-binding assay with [^3H]-CP55940; conditions: HEK293 membranes; mean (95% CI)
Chain of hCB2 C7.38(284)7.42(288)A (P34972 whole entry C284A/C288A): as the sequence (P34972 whole entry C288A) above, with C284A counted along it

hCB2 WT = hCB2 WT (Homo sapiens, UniProt P34972); assay: Saturation-binding assay with [^3H]-CP55940; conditions: HEK293 membranes; mean (95% CI)
Chain of hCB2 WT (P34972 whole entry): as the sequence (P34972 whole entry C288A) above, with A288C counted along it

hCB2 C137S = hCB2 C137S (Homo sapiens, UniProt P34972, C134S); assay: Saturation-binding assay with [^3H]-CP55940; conditions: HEK293 membranes; mean (95% CI)
Chain of hCB2 C137S (P34972 whole entry C134S): as the sequence (P34972 whole entry C288A) above, with C134S, A288C counted along it

hCB2 C313S = hCB2 C313S (Homo sapiens, UniProt P34972, C313S); assay: Saturation-binding assay with [^3H]-CP55940; conditions: HEK293 membranes; mean (95% CI)
Chain of hCB2 C313S (P34972 whole entry C313S): as the sequence (P34972 whole entry C288A) above, with A288C, C313S counted along it

hCB2 C7.42(288)S = hCB2 C7.42(288)S (Homo sapiens, UniProt P34972, C288S); assay: Saturation-binding assay with [^3H]-CP55940; conditions: HEK293 membranes; mean (95% CI)
Chain of hCB2 C7.42(288)S (P34972 whole entry C288S): as the sequence (P34972 whole entry C288A) above, with A288S counted along it

hCB2 C7.38(284)S = hCB2 C7.38(284)S (Homo sapiens, UniProt P34972, C284S); assay: Saturation-binding assay with [^3H]-CP55940; conditions: HEK293 membranes; mean (95% CI)
Chain of hCB2 C7.38(284)S (P34972 whole entry C284S): as the sequence (P34972 whole entry C288A) above, with C284S, A288C counted along it

hCB2 C6.47(257)S = hCB2 C6.47(257)S (Homo sapiens, UniProt P34972, C257S); assay: Saturation-binding assay with [^3H]-CP55940; conditions: HEK293 membranes; mean (95% CI)
Chain of hCB2 C6.47(257)S (P34972 whole entry C257S): as the sequence (P34972 whole entry C288A) above, with C257S, A288C counted along it

hCB2 C1.39(40)S = hCB2 C1.39(40)S (Homo sapiens, UniProt P34972, C40S); assay: Saturation-binding assay with [^3H]-CP55940; conditions: HEK293 membranes, mean (95% CI)
Chain of hCB2 C1.39(40)S (P34972 whole entry C40S): as the sequence (P34972 whole entry C288A) above, with C40S, A288C counted along it

Chain of hCB2 C175S (P34972 whole entry C175S): as the sequence (P34972 whole entry C288A) above, with C175S, A288C counted along it

| Compound | increased affinity relative to WT hCB2 (hCB2 C6.47(257)S mutant) | Ki (hCB2) | [^3H]-CP55940 Bmax (hCB2 C175S) | [^3H]-CP55940 Bmax (hCB2 C7.42(288)A) | [^3H]-CP55940 Bmax [1] | [^3H]-CP55940 Bmax (hCB2 C7.38(284)A) | [^3H]-CP55940 Bmax [2] | [^3H]-CP55940 Bmax (hCB2 WT) | [^3H]-CP55940 Bmax (hCB2 C137S) | [^3H]-CP55940 Bmax (hCB2 C313S) | [^3H]-CP55940 Bmax (hCB2 C7.42(288)S) | [^3H]-CP55940 Bmax (hCB2 C7.38(284)S) | [^3H]-CP55940 Bmax (hCB2 C6.47(257)S) | [^3H]-CP55940 Bmax (hCB2 C1.39(40)S) | [^3H]-CP55940 Bmax (hCB2 C1.39(40)S; listed as CP55940) |
| --- | --- | --- | --- | --- | --- | --- | --- | --- | --- | --- | --- | --- | --- | --- | --- |
| SR144528 | 2-3 fold | 0.6 nM |  |  |  |  |  |  |  |  |  |  |  |  |  |
| CCCCCCC(C)(C)c1ccc([C@@H]2C[C@H](O)CC[C@H]2CCCO)c(O)c1 [[^3H]-CP55940] |  |  | 1.69 (1.61~1.78) pmol/mg | 1.93 (1.69~2.17) pmol/mg | 1.38 (1.28~1.48) pmol/mg | 1.15 (1.03~1.26) pmol/mg | 1.12 (1.04~1.20) pmol/mg | 1.68 (1.61~1.74) pmol/mg | 1.50 (1.31~1.70) pmol/mg | 1.07 (1.01~1.13) pmol/mg | 1.07 (1.01~1.13) pmol/mg | 1.28 (1.21~1.36) pmol/mg | 1.58 (1.50~1.66) pmol/mg | 5.45 (4.99~5.92) pmol/mg | 5.45 pmol/mg |
